# Target: T1, GlyT1 transporter (Homo sapiens, UniProt P48067)
# T1 construct: endogenously expressing the GlyT1 transporter; host or cells: SK-N-MC human neuroblastoma cells
# T1 sequence (P48067 1-706): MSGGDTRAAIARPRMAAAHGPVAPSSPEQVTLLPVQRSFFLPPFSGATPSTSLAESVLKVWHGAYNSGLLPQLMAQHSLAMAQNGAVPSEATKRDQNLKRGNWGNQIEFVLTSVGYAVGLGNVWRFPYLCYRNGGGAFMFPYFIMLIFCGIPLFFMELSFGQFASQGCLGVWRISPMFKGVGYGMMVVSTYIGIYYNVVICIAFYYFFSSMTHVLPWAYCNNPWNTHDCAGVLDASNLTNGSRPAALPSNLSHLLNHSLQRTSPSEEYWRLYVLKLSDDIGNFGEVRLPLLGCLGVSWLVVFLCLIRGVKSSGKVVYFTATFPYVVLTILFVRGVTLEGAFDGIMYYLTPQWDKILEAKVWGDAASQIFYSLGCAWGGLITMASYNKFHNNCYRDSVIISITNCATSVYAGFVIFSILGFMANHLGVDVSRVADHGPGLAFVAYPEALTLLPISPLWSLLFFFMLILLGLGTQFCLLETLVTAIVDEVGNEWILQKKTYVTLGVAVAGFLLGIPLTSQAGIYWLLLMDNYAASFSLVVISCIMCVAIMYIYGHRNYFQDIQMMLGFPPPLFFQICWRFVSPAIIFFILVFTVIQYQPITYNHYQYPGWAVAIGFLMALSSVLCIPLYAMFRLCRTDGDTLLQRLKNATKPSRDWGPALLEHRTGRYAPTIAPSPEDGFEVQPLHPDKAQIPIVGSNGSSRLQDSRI
# Test: GlyT1 assay: 3H-glycine uptake into SK-N-MC cells (Cytostar-T format)
# Type: cell-based
# Settings: glycine uptake in human SK-N-MC cells endogenously expressing GlyT1; 500 nM glycine, 1% DMSO, signal recorded over 60 min
# Excerpt: Cells expressing either endogenously the GlyT1 transporter like JAR cells (human placental choriocarcinoma cells; e.g. WO 2008/002583) or SK-N-MC cells (human neuroblastoma cells; Depoortere et al., 2005. Neuropsychopharmacology 30:1963-1985) or primary neurons or cells which have been transfected with a plasmid encoding the cDNA of a functional GlyT1 transporter and stably or transiently express GlyT1 (e.g. WO 2006/08200) can be used to monitor glycine uptake in cells. Different protocols for determination of the glycine uptake into the cells described above can be applied in order to identify and rank compounds which interfere with glycine uptake in the selected cell.
# Compounds outlined in the examples below were characterized using human SK-N-MC cells (ATCC number HTB-10) endogenously expressing the GlyT1 transporter which is responsible for the uptake of glycine into these cells and the uptake of glycine into these cells is monitored using the Cytostar-T assay format (GE Healthcare, RPNQ0162) which is based on the radioactive glycine taken up by the cells and brought into proximity with the scintillant contained within the base of the plate. The radioactive decay is converted to a light signal based on the integration of the scintillation matrix into the assay plate. The uptake is recorded as kinetic and the slope of the measured counts over time is used to calculate IC50.
# In detail, SK-N-MC cells are seeded into 96-well Cytostar-T assay plates at a density of 200,000 cells/well and grown for 16-18 hours to confluence in growth medium as recommended by ATCC. Before starting the assay, cells are washed once with HBSS (Hank's buffered salt solution; Sigma, H8264) cont. 5 mM alanine (referred in here as HBSS/Ala) and afterwards the following reagents are added: • 1. 80 μl/well HBSS/Ala • 2. 20 μl/well of HBSS/Ala containing 6× the concentration of compound in 6% DMSO • 3. approx. 5-10 min incubation • 4. 20 μl/well 3 μM glycine (^3H-glycine (Perkin Elmer, NET004001MC, specific activity: 52 Ci/mmol; diluted 1:1 with unlabelled glycine) in HBSS/Ala.
# In the final assay, glycine concentration is 500 nM (250 nM derived from the ^3H-glycine Perkin Elmer, 250 nM unlabelled glycine), DMSO concentration is 1%.
# The assay plate is immediately after addition of the ^3H-glycine placed into a Micro-Beta Counter (Perkin Elmer) and the signal is recorded over 60 min.
# To calculate uptake, the slope in the linear range of the kinetics is determined using GraphPadPrism and for the different slopes at the selected concentrations IC50 are calculated by curve fitting using the software GraphPadPrism.
# Maximal glycine uptake in every experiment is determined by incubation of SK-N-MC cells with substrate but without inhibitor. Unspecific uptake of glycine by the cells is determined by incubating the cells with substrate and a reference GlyT1 inhibitor e.g. 10 μM RG-1678 (Pinard et al., 2010, J. Med. Chem. 53(12):4603-14).
# Compounds are diluted from 10 mM stocks and in general, for IC50 determination 8 compound concentrations are used.
row,SMILES,IC50 [nM]
1,"CC(C)Oc1ccc(S(C)(=O)=O)cc1C(=O)N1CC2CC2(c2noc(C(F)(F)F)n2)C1 (single isomer, unassigned) [Example 97, (2-Isopropoxy-5-methanesulfonyl-phenyl)-[1-(5-trifluoromethyl-[1,2,4]oxadiazol-3-yl)-3-aza-bicyclo[3.1.0]hex-3-yl]-methanone]",8
2,"CC(Oc1ccc(C#N)cc1C(=O)N1CC2CC2(c2noc(C(F)(F)F)n2)C1)C(F)(F)F (centres unmarked) [Example 39, 4-(2,2,2-Trifluoro-1-methyl-ethoxy)-3-[1-(5-trifluoromethyl-[1,2,4]oxadiazol-3-yl)-3-aza-bicyclo[3.1.0]hexane-3-carbonyl]-benzonitrile]",143
3,"C[C@@H](Oc1ccc(S(C)(=O)=O)cc1C(=O)N1CC2CC2(c2noc(C3CC3)n2)C1)C(F)(F)F (single isomer, unassigned) [Example 45, [1-(5-Cyclopropyl-[1,2,4]oxadiazol-3-yl)-3-aza-bicyclo[3.1.0]hex-3-yl]-[5-methanesulfonyl-2-(2,2,2-trifluoro-1-methyl-ethoxy)-phenyl]-methanone]",2
4,"C[C@@H](Oc1ccc(S(C)(=O)=O)cc1C(=O)N1CC2CC2(c2cc(C(F)(F)F)on2)C1)C(F)(F)F (single isomer, unassigned) [Example 50, [5-Methanesulfonyl-2-(2,2,2-trifluoro-1-methyl-ethoxy)-phenyl]-[1-(5-trifluoromethyl-isoxazol-3-yl)-3-aza-bicyclo[3.1.0]hex-3-yl]-methanone]",6
5,"C[C@H](Oc1ccc(S(C)(=O)=O)cc1C(=O)N1CC2CC2(c2coc(C3CC3)n2)C1)C(F)(F)F (mixture of isomers) [Example 80, [1-(2-Cyclopropyl-oxazol-4-yl)-3-aza-bicyclo[3.1.0]hex-3-yl]-[5-methanesulfonyl-2-((S)-2,2,2-trifluoro-1-methyl-ethoxy)-phenyl]-methanone]",3
6,"C[C@H](Oc1ccc(S(C)(=O)=O)cc1C(=O)N1CC2CC2(c2noc(C(C)(C)C(F)(F)F)n2)C1)C(F)(F)F (mixture of isomers) [Example 12, [5-Methanesulfonyl-2-(2,2,2-trifluoro-1-methyl-ethoxy)-phenyl]-{1-[5-(2,2,2-trifluoro-1,1-dimethyl-ethyl)-[1,2,4]oxadiazol-3-yl]-3-aza-bicyclo[3.1.0]hex-3-yl}-methanone]",18
7,"C[C@H](Oc1ccc(S(C)(=O)=O)cc1C(=O)N1CC2CC2(c2noc(C(F)(F)F)n2)C1)C(F)(F)F (mixture of isomers) [Example 1, [5-Methanesulfonyl-2-(2,2,2-trifluoro-1-methyl-ethoxy)-phenyl]-[1-(5-trifluoromethyl-[1,2,4]oxadiazol-3-yl)-3-aza-bicyclo[3.1.0]hex-3-yl]-methanone]",39
8,"C[C@@H](Oc1ccc(S(C)(=O)=O)cc1C(=O)N1CC2CC2(c2ncc(C(F)(F)F)o2)C1)C(F)(F)F (single isomer, unassigned) [Example 129, [5-Methanesulfonyl-2-(2,2,2-trifluoro-1-methyl-ethoxy)-phenyl]-[1-(5-trifluoromethyl-oxazol-2-yl)-3-aza-bicyclo[3.1.0]hex-3-yl]-methanone]",147
9,"COC1(c2nc(C34CC3CN(C(=O)c3cc(S(C)(=O)=O)ccc3O[C@@H](C)C(F)(F)F)C4)no2)CC1 (mixture of isomers) [Example 116, [5-Methanesulfonyl-2-(2,2,2-trifluoro-1-methyl-ethoxy)-phenyl]-{1-[5-(1-methoxy-cyclopropyl)-[1,2,4]oxadiazol-3-yl]-3-aza-bicyclo[3.1.0]hex-3-yl}-methanone]",10
10,"Cc1cc(C23CC2CN(C(=O)c2cc(S(C)(=O)=O)ccc2O[C@@H](C)C(F)(F)F)C3)no1 (mixture of isomers) [Example 52, [5-Methanesulfonyl-2-(2,2,2-trifluoro-1-methyl-ethoxy)-phenyl]-[1-(5-methyl-isoxazol-3-yl)-3-aza-bicyclo[3.1.0]hex-3-yl]-methanone]",15
11,"CCS(=O)(=O)c1ccc(O[C@H](C)C(F)(F)F)c(C(=O)N2CC3CC3(c3nccc(C(F)(F)F)n3)C2)c1 (single isomer, unassigned) [Example 78, [5-Ethanesulfonyl-2-(2,2,2-trifluoro-1-methyl-ethoxy)-phenyl]-[1-(4-trifluoromethyl-pyrimidin-2-yl)-3-aza-bicyclo[3.1.0]hex-3-yl]-methanone]",7

# Other lines, results leading:
row,IC50 [nM],SMILES
1,9,"C[C@@H](Oc1ccc(S(C)(=O)=O)cc1C(=O)N1CC2CC2(c2nnc(C3CC3)o2)C1)C(F)(F)F (mixture of isomers) [Example 146, [1-(5-Cyclopropyl-[1,3,4]oxadiazol-2-yl)-3-aza-bicyclo[3.1.0]hex-3-yl]-[5-methanesulfonyl-2-(2,2,2-trifluoro-1-methyl-ethoxy)-phenyl]-methanone]"
2,3,"C[C@@H](Oc1ccc(S(C)(=O)=O)cc1C(=O)N1CC2CC2(c2ncc(C(F)(F)F)o2)C1)C(F)(F)F (single isomer, unassigned) [Example 130, [5-Methanesulfonyl-2-(2,2,2-trifluoro-1-methyl-ethoxy)-phenyl]-[1-(5-trifluoromethyl-oxazol-2-yl)-3-aza-bicyclo[3.1.0]hex-3-yl]-methanone]"
3,85,"C[C@H](Oc1ccc(S(C)(=O)=O)cc1C(=O)N1CC2(C)CC2(c2noc(C(F)(F)F)n2)C1)C(F)(F)F (single isomer, unassigned) [Example 158, [5-Methanesulfonyl-2-(2,2,2-trifluoro-1-methyl-ethoxy)-phenyl]-[1-methyl-5-(5-trifluoromethyl-[1,2,4]oxadiazol-3-yl)-3-aza-bicyclo[3.1.0]hex-3-yl]-methanone]"
4,36,"C[C@H](Oc1ccc(S(C)(=O)=O)cc1C(=O)N1CC2CC2(c2nc(C3(C(F)(F)F)CC3)no2)C1)C(F)(F)F (mixture of isomers) [Example 155, [5-Methanesulfonyl-2-(2,2,2-trifluoro-1-methyl-ethoxy)-phenyl]-{1-[3-(1-trifluoromethyl-cyclopropyl)-[1,2,4]oxadiazol-5-yl]-3-aza-bicyclo[3.1.0]hex-3-yl}-methanone]"
5,8,"C[C@@H](Oc1ccc(S(C)(=O)=O)cc1C(=O)N1CC2CC2(c2nnc(C3(C(F)(F)F)CC3)o2)C1)C(F)(F)F (single isomer, unassigned) [Example 149, [5-Methanesulfonyl-2-(2,2,2-trifluoro-1-methyl-ethoxy)-phenyl]-{1-[5-(1-trifluoromethyl-cyclopropyl)-[1,3,4]oxadiazol-2-yl]-3-aza-bicyclo[3.1.0]hex-3-yl}-methanone]"
6,3,"CC(C)Oc1ccc(S(C)(=O)=O)cc1C(=O)N1CC2CC2(c2noc(C3(C(F)(F)F)CC3)n2)C1 (single isomer, unassigned) [Example 142, (2-Isopropoxy-5-methanesulfonyl-phenyl)-{1-[5-(1-trifluoromethyl-cyclopropyl)-[1,2,4]oxadiazol-3-yl]-3-aza-bicyclo[3.1.0]hex-3-yl}-methanone]"

# — US9012489B2, “Phenyl-3-aza-bicyclo[3.1.0]hex-3-yl-methanones and the use thereof as medicament” (Boehringer Ingelheim International GmbH, priority 2011, dated 2015)
